Measurements taken from US20210094954A1, “PREPARATION METHODS AND APPLICATIONS OF 3,5-DISUBSTITUTED METHYLPYRAZOLO[1,5-A]PYRIMIDINE-7-HYDROXYLIC SALTS” (priority 2019, published 2021).
Read-outs that look alike come from different tables or passages of the source.

Columns and labels:
Format in all cases: cell-based
[1] = system: Streptococcus pneumoniae M2; assay: microbe, parasite or virus in culture; conditions: 37° C., 24 hours; for MIC: Streptococcus pneumoniae, M2, read-out: MIC values of in vitro antibacterial test results
Oral Candida = assay: microbe, parasite or virus in culture; conditions: for MIC: Candida
[2] = system: Bacillus anthracis Bacillus 1; assay: microbe, parasite or virus in culture; conditions: for MIC: Bacillus anthracis, 24 h, read-out: MIC values of in vitro antibacterial test results
[3] = system: Enterococcus faecalis F2518(VRE); assay: microbe, parasite or virus in culture; conditions: for MIC: Enterococcus faecalis, VRE, 24 h, read-out: MIC values of in vitro antibacterial test results
Bacillus subtilis 168 = assay: microbe, parasite or virus in culture; conditions: 37° C., 24 hours; for MIC: Bacillus subtilis, 168, read-out: MIC values of in vitro antibacterial test results
Peel fungus = assay: organism not typed; conditions: 37° C., 24 hours; for MIC: read-out: MIC values of in vitro antibacterial test results
[4] = system: Enterococcus faecalis 29212; assay: microbe, parasite or virus in culture; conditions: 37° C., 24 hours; for MIC: Enterococcus faecalis, 29212, read-out: MIC values of in vitro antibacterial test results
[5] = system: Staphylococcus aureus 29231; assay: microbe, parasite or virus in culture; conditions: 37° C., 24 hours; for MIC: Staphylococcus aureus, 29231, read-out: MIC values of in vitro antibacterial test results
Clostridium perfringens = assay: microbe, parasite or virus in culture; conditions: for MIC: Clostridium perfringens, 24 h, read-out: MIC values of in vitro antibacterial test results
[6] = system: Streptococcus pneumoniae 6303 (PRSP); assay: microbe, parasite or virus in culture; conditions: for MIC: Streptococcus pneumoniae, PRSP, 24 h, read-out: MIC values of in vitro antibacterial test results
[7] = system: F2518(VRE), Staphylococcus aureus resistant strain 43300(MRSA), 703 (MRSA), pneumococcal resistance bacteria 6303(PRSP); assay: microbe, parasite or virus in culture; conditions: read-out: MIC values (μM)
[8] = system: Staphylococcus aureus 43300(MRSA); assay: microbe, parasite or virus in culture; conditions: for MIC: Staphylococcus aureus, MRSA
[9] = system: Streptococcus pneumoniae 10351; assay: microbe, parasite or virus in culture; conditions: 37° C., 24 hours; for MIC: Streptococcus pneumoniae, 10351, read-out: MIC values of in vitro antibacterial test results
[10] = system: Streptococcus agalactia B group; assay: microbe, parasite or virus in culture; conditions: 37° C., 24 hours; for MIC: Streptococcus, read-out: MIC values of in vitro antibacterial test results
Bacillus cereus 2 = assay: microbe, parasite or virus in culture; conditions: 37° C., 24 hours; for MIC: Bacillus cereus, 2, read-out: MIC values of in vitro antibacterial test results
[11] = system: Staphylococcus aureus 703(MRSA); assay: microbe, parasite or virus in culture; conditions: for MIC: Staphylococcus aureus, MRSA
Diphtheria bacilli = assay: organism not typed; conditions: 37° C., 24 hours; for MIC: read-out: MIC values of in vitro antibacterial test results
[12] = 37° C., 24 hours, read-out: MIC values of in vitro antibacterial test results
[13] = 24 h, read-out: MIC values of in vitro antibacterial test results

Compound	MIC [1] [mg/L]	MIC (Oral Candida; [12]) [mg/L]	MIC [2] [mg/L]	MIC [3] [mg/L]	MIC (Bacillus subtilis 168) [mg/L]	MIC (Peel fungus) [mg/L]	MIC [4] [mg/L]	MIC [5] [mg/L]	MIC (Clostridium perfringens) [mg/L]	MIC [6] [mg/L]	MIC [7] [mg/L]	MIC [8, 13] [mg/L]	MIC [9] [mg/L]	MIC [10] [mg/L]	MIC (Bacillus cereus 2) [mg/L]	MIC [11, 13] [mg/L]	MIC (Diphtheria bacilli) [mg/L]	other results
Cc1nn2c([O-])cc(-c3ccc(C(F)(F)F)cc3)nc2c1-c1ccc(F)cc1F.[Na+] [Compound 1, sodium 3-(2,4-difluorophenyl)-2-methyl-5-(4-(trifluoromethyl)-phenyl)pyrazolo[1,5-α]pyrimidin-7-olate]	< 100	< 100	> 150	< 150	< 100	> 150	< 100	< 100	> 150	< 100	< 100	< 100	< 100	< 150	< 100	< 150	> 150	MIC (Oral Candida; read-out: MIC values (μM)): < 100 mg/L
Cc1nn2c([O-])cc(-c3ccc(C#N)cc3)nc2c1-c1ccc(F)cc1F.[Na+] [Compound 2, Sodium 5-(4-cyanophenyl)-3-(2,4-difluorophenyl)-2-methylpyrazolo[1,5-α]pyrimidin-7-olate]	< 150	< 150	> 150	< 150	< 150	< 150	< 100	< 100	> 150	< 150	< 100	< 50	< 100	< 150	< 100	< 50	> 150	MIC ([8]; read-out: MIC values (μM)): < 50 mg/L; MIC ([11]; read-out: MIC values (μM)): < 50 mg/L
COc1ccc(-c2cc([O-])n3nc(C)c(-c4ccc(F)cc4F)c3n2)cc1.[Na+] [Compound 4, Sodium 3-(2,4-difluorophenyl)-5-(4-methoxyphenyl)-2-methylpyrazolo[1,5-α]pyrimidin-7-olate]	< 150	< 150	> 150	< 150	> 150	< 150	< 150	> 150	> 150	> 150	< 100	< 100	> 150	> 150	< 150	< 150	> 150	–
Cc1nn2c([O-])cc(-c3ccc([O-])cc3)nc2c1-c1ccc(F)cc1F.[Na+].[Na+] [Compound 6]	< 150	< 100	> 150	< 150	< 100	< 150	< 100	< 100	> 150	< 150	< 100	< 100	< 100	< 150	< 100	< 100	> 150	MIC (Oral Candida; read-out: MIC values (μM)): < 100 mg/L
Cc1nn2c([O-])cc(-c3ccc(C(=O)[O-])cc3)nc2c1-c1ccc(F)cc1F.[Na+].[Na+] [Compound 7, Disodium 4-(3-(2,4-difluorophenyl)-2-methyl-7-hydroxy-pyrazolo[1,5-α]pyrimidin-5-yl)benzoate]	< 100	> 150	> 150	< 150	> 150	< 150	< 150	> 150	> 150	> 150	< 100	< 100	> 150	> 150	< 150	< 150	> 150	–
Cc1nn2c([O-])cc(-c3ccc(S(=O)[O-])cc3)nc2c1-c1ccc(F)cc1F.[Na+].[Na+] [Compound 8]	< 150	< 150	> 150	< 150	> 150	< 150	< 150	> 150	> 150	> 150	–	< 150	> 150	> 150	< 150	< 150	> 150	–
Cc1nn2c([O-])cc(-c3ccc(C(N)=O)cc3)nc2c1-c1ccc(F)cc1F.[Na+] [Compound 11, Sodium 5-(4-carbamoylphenyl)-3-(2,4-difluorophenyl)-2-methylpyrazolo[1,5-α]pyrimidin-7-olate]	< 100	< 150	> 150	< 150	> 150	< 150	< 150	> 150	> 150	> 150	< 100	< 100	> 150	> 150	< 150	< 150	> 150	–
Cc1nn2c([O-])cc(-c3ccc([S](=O)(=O)[Na])nc3)nc2c1-c1ccc(F)cc1F.[Na+] [Compound 28, Disodium 5-(3-(2,4-difluorophenyl)-2-methyl-7-hydroxypyrazolo[1,5-α]pyrimidin-5-yl)pyridine-2-sulfinate]	–	–	–	–	–	–	–	–	–	–	–	–	–	–	–	–	–	MIC values of in vitro antibacterial test results [1]: ++ (key: − represents the MIC value (μM) > 150 μg/mL; + represents the MIC value (μM) < 150 μg/mL; ++ represents the MIC value (μM) < 100 μg/mL; +++ represents the MIC value (μM) < 50 μg/mL); MIC values of in vitro antibacterial test results (Oral Candida; 37° C., 24 hours): ++ (key: − represents the MIC value (μM) > 150 μg/mL; + represents the MIC value (μM) < 150 μg/mL; ++ represents the MIC value (μM) < 100 μg/mL; +++ represents the MIC value (μM) < 50 μg/mL); MIC values of in vitro antibacterial test results ([2]; 37° C., 24 hours): − (key: − represents the MIC value (μM) > 150 μg/mL; + represents the MIC value (μM) < 150 μg/mL; ++ represents the MIC value (μM) < 100 μg/mL; +++ represents the MIC value (μM) < 50 μg/mL); MIC values of in vitro antibacterial test results ([3]; 37° C., 24 hours): + (key: − represents the MIC value (μM) > 150 μg/mL; + represents the MIC value (μM) < 150 μg/mL; ++ represents the MIC value (μM) < 100 μg/mL; +++ represents the MIC value (μM) < 50 μg/mL); MIC values of in vitro antibacterial test results (Bacillus subtilis 168): − (key: − represents the MIC value (μM) > 150 μg/mL; + represents the MIC value (μM) < 150 μg/mL; ++ represents the MIC value (μM) < 100 μg/mL; +++ represents the MIC value (μM) < 50 μg/mL); MIC values of in vitro antibacterial test results (Peel fungus): + (key: − represents the MIC value (μM) > 150 μg/mL; + represents the MIC value (μM) < 150 μg/mL; ++ represents the MIC value (μM) < 100 μg/mL; +++ represents the MIC value (μM) < 50 μg/mL); MIC values of in vitro antibacterial test results [4]: + (key: − represents the MIC value (μM) > 150 μg/mL; + represents the MIC value (μM) < 150 μg/mL; ++ represents the MIC value (μM) < 100 μg/mL; +++ represents the MIC value (μM) < 50 μg/mL); MIC values of in vitro antibacterial test results [5]: − (key: − represents the MIC value (μM) > 150 μg/mL; + represents the MIC value (μM) < 150 μg/mL; ++ represents the MIC value (μM) < 100 μg/mL; +++ represents the MIC value (μM) < 50 μg/mL); MIC values of in vitro antibacterial test results (Clostridium perfringens; 37° C., 24 hours): − (key: − represents the MIC value (μM) > 150 μg/mL; + represents the MIC value (μM) < 150 μg/mL; ++ represents the MIC value (μM) < 100 μg/mL; +++ represents the MIC value (μM) < 50 μg/mL); MIC values of in vitro antibacterial test results ([6]; 37° C., 24 hours): − (key: − represents the MIC value (μM) > 150 μg/mL; + represents the MIC value (μM) < 150 μg/mL; ++ represents the MIC value (μM) < 100 μg/mL; +++ represents the MIC value (μM) < 50 μg/mL); MIC values of in vitro antibacterial test results ([8]; 37° C., 24 hours): + (key: − represents the MIC value (μM) > 150 μg/mL; + represents the MIC value (μM) < 150 μg/mL; ++ represents the MIC value (μM) < 100 μg/mL; +++ represents the MIC value (μM) < 50 μg/mL); MIC values of in vitro antibacterial test results [9]: − (key: − represents the MIC value (μM) > 150 μg/mL; + represents the MIC value (μM) < 150 μg/mL; ++ represents the MIC value (μM) < 100 μg/mL; +++ represents the MIC value (μM) < 50 μg/mL); MIC values of in vitro antibacterial test results [10]: − (key: − represents the MIC value (μM) > 150 μg/mL; + represents the MIC value (μM) < 150 μg/mL; ++ represents the MIC value (μM) < 100 μg/mL; +++ represents the MIC value (μM) < 50 μg/mL); MIC values of in vitro antibacterial test results (Bacillus cereus 2): ++ (key: − represents the MIC value (μM) > 150 μg/mL; + represents the MIC value (μM) < 150 μg/mL; ++ represents the MIC value (μM) < 100 μg/mL; +++ represents the MIC value (μM) < 50 μg/mL); MIC values of in vitro antibacterial test results ([11]; 37° C., 24 hours): + (key: − represents the MIC value (μM) > 150 μg/mL; + represents the MIC value (μM) < 150 μg/mL; ++ represents the MIC value (μM) < 100 μg/mL; +++ represents the MIC value (μM) < 50 μg/mL); MIC values of in vitro antibacterial test results (Diphtheria bacilli): − (key: − represents the MIC value (μM) > 150 μg/mL; + represents the MIC value (μM) < 150 μg/mL; ++ represents the MIC value (μM) < 100 μg/mL; +++ represents the MIC value (μM) < 50 μg/mL)
